Reference: ChEMBL document CHEMBL1201862, “PubChem BioAssay data set” (2004)
Active and inactive are the calls of the source.

Experiments:
[1] = target: Melanin-concentrating hormone receptor 1 (Homo sapiens, UniProt Q99705); assay: Fluorescence-based counterscreen for antagonists of the G-protein coupled receptor 7 (GPR7): cell-based high throughput dose response assay to identify antagonists of the melanin-concentrating hormone receptor 1 (MCHR1).; format: functional
[2] = target: T1, Neuropeptides B/W receptor type 1 (Homo sapiens, UniProt P48145); assay: Fluorescence-based dose response cell-based high throughput screening assay to identify antagonists of the G-protein coupled receptor 7 (GPR7). [Related pubchem assays: 1952 (Screening assay (GPR7 antagonists).), 1880 (Summary AID.)]; format: functional
T1 sequence (P48145 whole entry): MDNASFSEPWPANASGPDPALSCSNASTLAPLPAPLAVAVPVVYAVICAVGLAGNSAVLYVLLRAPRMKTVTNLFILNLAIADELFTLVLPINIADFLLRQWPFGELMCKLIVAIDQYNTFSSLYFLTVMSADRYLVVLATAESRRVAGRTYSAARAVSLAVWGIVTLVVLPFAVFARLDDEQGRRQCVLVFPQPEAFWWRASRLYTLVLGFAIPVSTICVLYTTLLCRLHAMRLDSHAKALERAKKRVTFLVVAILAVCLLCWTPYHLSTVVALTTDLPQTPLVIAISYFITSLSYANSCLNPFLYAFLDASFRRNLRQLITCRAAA

[3] = target: T2, Short transient receptor potential channel 4 (Mus musculus, UniProt Q9QUQ5); assay: calcium entry via TRPC4 opening agents – cell-based, HEK293 TRPC4/mu-opioid, Fluo-4 calcium, dose response (AID 434937); format: functional
T2 sequence (Q9QUQ5 whole entry): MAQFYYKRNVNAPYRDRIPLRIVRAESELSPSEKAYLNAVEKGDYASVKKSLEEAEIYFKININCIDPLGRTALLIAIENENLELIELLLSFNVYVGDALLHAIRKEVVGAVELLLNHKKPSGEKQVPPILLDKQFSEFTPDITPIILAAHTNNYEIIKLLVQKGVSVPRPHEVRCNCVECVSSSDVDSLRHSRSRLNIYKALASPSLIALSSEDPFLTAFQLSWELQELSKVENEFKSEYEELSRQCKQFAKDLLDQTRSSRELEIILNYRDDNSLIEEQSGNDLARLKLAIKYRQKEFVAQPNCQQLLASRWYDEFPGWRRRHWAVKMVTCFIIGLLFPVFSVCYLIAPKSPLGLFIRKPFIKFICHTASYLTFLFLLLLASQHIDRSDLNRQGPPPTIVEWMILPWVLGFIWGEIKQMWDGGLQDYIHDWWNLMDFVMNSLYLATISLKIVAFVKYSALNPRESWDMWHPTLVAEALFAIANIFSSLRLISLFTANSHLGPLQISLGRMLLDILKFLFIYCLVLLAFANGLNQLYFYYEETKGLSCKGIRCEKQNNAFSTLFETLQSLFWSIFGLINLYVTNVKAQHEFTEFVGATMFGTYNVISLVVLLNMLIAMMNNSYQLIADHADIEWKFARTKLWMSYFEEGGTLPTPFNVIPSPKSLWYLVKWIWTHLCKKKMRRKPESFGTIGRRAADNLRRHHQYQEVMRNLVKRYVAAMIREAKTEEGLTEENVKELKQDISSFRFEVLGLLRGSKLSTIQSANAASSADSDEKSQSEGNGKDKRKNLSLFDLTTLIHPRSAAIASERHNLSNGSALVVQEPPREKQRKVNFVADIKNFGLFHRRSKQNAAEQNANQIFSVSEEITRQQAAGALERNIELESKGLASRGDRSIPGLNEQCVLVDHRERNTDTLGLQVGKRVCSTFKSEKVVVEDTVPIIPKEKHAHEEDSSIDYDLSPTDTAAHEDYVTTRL

[4] = target: T2, Short transient receptor potential channel 4; assay: block of DAMGO-driven TRPC4 calcium entry – cell-based, HEK293 TRPC4/mu-opioid, Fluo-4 calcium, dose response (AID 434942); format: functional;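 note: potency of inhibitors blocking the TRPC4 calcium response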
[5] = A cytotoxicity screen of small molecule inhibitors of the PhoP region in Salmonella typhi identified in the primary screen. [Related pubchem assays: 1850, 1864, 1985 ]; format: functional
[6] = target: T3, Long-chain-fatty-acid--AMP ligase FadD28 (Mycobacterium tuberculosis, UniProt P9WQ59); assay: Fluorescence polarization aasay to screen for inhibitors that compete for the binding of FadD28 to a bisubstrate Measured in Biochemical System Using Plate Reader - 2147-01_Inhibitor_Dose_CherryPick_Activity.; format: functional, Mycobacterium tuberculosis H37Rv
T3 sequence (P9WQ59 whole entry): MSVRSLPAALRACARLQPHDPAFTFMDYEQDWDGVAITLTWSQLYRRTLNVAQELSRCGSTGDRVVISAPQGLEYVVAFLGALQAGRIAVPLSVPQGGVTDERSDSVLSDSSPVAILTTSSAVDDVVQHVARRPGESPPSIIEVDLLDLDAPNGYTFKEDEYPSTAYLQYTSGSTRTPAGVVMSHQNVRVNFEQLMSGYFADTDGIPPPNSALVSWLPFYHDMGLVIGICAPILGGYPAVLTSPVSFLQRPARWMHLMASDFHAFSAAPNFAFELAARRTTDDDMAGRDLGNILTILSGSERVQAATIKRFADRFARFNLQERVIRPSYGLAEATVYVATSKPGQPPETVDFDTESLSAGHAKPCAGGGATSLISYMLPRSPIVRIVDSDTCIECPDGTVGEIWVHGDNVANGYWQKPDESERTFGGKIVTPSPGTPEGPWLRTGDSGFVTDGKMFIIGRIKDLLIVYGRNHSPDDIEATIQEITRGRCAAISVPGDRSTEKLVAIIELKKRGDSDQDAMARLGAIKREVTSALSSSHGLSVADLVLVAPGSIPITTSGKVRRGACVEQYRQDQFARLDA

[7] = Luminescence Cell-Based Dose Retest to Confirm Inhibitors of Cancer Stem Cells. [Related pubchem assays (depositor defined):AID2717, AID2721]; format: functional; settings: Homo sapiens
Genome polyprotein = Genome polyprotein (dengue virus type 2, UniProt P29990); assay: flavivirus cap methylation enzyme inhibition – biochemical, confirmation dose response, primary screen (AID 588689); format: functional
Sequence of Genome polyprotein (P29990 2492-3391 limits assumed): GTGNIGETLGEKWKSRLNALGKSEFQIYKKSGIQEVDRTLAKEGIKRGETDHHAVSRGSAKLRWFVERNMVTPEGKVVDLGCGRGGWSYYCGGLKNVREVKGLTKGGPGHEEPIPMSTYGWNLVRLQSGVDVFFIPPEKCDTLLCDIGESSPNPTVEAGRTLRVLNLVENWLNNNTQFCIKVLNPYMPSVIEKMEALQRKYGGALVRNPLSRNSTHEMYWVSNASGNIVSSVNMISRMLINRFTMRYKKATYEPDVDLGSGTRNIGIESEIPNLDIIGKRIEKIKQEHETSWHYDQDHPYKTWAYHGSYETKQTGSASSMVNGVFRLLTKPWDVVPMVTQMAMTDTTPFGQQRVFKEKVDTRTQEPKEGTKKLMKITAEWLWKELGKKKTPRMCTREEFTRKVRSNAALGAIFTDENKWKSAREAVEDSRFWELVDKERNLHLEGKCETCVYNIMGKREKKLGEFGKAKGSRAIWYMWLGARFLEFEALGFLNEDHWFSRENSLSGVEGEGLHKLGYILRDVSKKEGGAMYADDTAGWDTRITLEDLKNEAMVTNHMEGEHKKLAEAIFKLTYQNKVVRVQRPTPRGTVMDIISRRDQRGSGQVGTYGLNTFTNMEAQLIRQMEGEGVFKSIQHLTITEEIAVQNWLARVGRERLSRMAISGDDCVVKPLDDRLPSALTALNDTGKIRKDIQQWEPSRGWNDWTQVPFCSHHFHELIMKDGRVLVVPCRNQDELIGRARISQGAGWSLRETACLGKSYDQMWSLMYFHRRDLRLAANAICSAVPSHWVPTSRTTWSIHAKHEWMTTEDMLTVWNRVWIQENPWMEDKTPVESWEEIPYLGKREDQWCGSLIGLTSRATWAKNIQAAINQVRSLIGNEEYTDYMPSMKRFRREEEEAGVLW

[8] = blockers of HIV-1 ZM109 envelope-driven cell-cell fusion – HeLa effector, CEM target cells, luciferase, cherry-pick, dose response (AID 652058); format: functional, cell-based;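 note: luciferase signal from HIV-1 Env mediated cell-cell fusion of effector and target cells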
[9] = HIV-1 AD8 envelope cell-cell fusion blockers – cherry-pick, dose response (AID 652062); format: functional, cell-based;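 note: luciferase signal from cell-cell fusion driven by HIV-1 clade B AD8 Env; potency is for inhibitors of fusion seen as a drop in luminescence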
[10] = viability loss in CEM21 cells – cell-based, CellTiter-Glo luminescence, cherry-picked, cytotoxicity control for viral fusion inhibitor project, dose response (AID 652042); format: functional;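 note: potency for signal decrease meaning cytotoxicity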
[11] = A Cell Based Secondary Assay To Explore Cytotoxicity of Compounds that Sensitize Mycobacterium Tuberculosis to Beta-Lactam Antibiotics.; format: functional
[12] = target: Glucose-6-phosphate 1-dehydrogenase (Homo sapiens, UniProt P11413); assay: inhibition of Homo sapiens G6PD, dose series – biochemical, fluorescence, selectivity assay for P. falciparum G6PD inhibitor project, dose response (AID 504792); format: functional
Sequence of Glucose-6-phosphate 1-dehydrogenase (P11413 whole entry, the tested form may be a part): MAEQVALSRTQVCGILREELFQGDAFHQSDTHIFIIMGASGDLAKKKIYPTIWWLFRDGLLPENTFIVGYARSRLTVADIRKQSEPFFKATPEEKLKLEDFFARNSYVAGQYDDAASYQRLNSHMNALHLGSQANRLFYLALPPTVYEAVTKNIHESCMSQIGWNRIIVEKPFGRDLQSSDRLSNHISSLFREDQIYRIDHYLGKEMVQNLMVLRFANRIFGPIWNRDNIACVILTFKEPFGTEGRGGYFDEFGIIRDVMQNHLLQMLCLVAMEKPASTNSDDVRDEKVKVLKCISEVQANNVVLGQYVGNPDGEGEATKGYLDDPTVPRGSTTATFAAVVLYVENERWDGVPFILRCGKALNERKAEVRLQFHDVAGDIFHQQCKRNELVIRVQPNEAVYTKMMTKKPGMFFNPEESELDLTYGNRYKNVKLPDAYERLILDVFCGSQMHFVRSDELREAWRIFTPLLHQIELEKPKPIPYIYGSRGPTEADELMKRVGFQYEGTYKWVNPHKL

[13] = blockers of HIV-1 envelope-mediated cell-cell fusion – cherry-pick, dose response (AID 652057); format: functional, cell-based
[14] = off-target signal loss in HeLa-CEM21 co-culture – HeLa F-luc CTL cells, cherry-picked, counter-screen for HIV-1 Env fusion inhibitor project, dose response (AID 652040); format: functional, cell-based;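 note: potency for signal decrease marking cytotoxic or nonspecific inhibition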
[15] = Luminescence Cell-Based Dose Response HTS to Identify Inhibitors of 5'UTR Stem-Loop Driven Prion Protein mRNA Translation in H4 Neuroglioblastoma Cells. [Related pubchem assays: 1827 (Project Summary), 1813 (Primary HTS)]; format: functional
Protein Wnt-3a = Protein Wnt-3a (Mus musculus, UniProt P27467); assay: antagonism of Wnt3a pathway luciferase reporter – Wnt-LIGHT cells, luminescence, selectivity assay for Gli-SUFU antagonist project, dose response (AID 651570); format: functional; settings: read-out: IC50_Mean;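 note: Wnt-LIGHT reporter cells stimulated with conditioned medium from Wnt3a-producing cells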
Sequence of Protein Wnt-3a (P27467 whole entry): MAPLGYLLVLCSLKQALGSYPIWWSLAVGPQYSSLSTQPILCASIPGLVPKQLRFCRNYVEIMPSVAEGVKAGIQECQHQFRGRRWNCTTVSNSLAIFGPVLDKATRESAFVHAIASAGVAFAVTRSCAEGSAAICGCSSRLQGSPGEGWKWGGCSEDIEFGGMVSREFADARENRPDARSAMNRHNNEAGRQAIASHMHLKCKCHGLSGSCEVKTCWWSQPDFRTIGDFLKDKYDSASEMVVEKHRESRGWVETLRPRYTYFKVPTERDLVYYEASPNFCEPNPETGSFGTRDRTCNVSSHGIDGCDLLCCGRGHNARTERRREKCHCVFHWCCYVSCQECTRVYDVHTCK

[16] = loss of viability in HepG2 cells – cell-based, CellTiter-Glo, cherry-picked, cytotoxicity control for Shn3 inhibitor project, dose response (AID 624134); format: functional
[17] = luciferase reporter signal suppression in cells – H4 neuroglioma cells, luminescence, dose response (AID 1990); format: functional, cell-based
[18] = alpha-synuclein stem-loop luciferase translation blockers – H4 neuroglioma cells, luminescence, confirmation (AID 1988); format: functional, cell-based
[19] = non-specific 3'UTR reporter inhibition in Clone20-Shn3RL – cell-based, Renilla luciferase, cherry-picked, counter-screen for Shn3 inhibitor project, dose response (AID 624133); format: functional
[20] = reduction of Shn3 3'UTR-driven luciferase in osteoblasts – cell-based, Clone20 osteoblasts, firefly luciferase, cherry-picked, dose response (AID 624132); format: functional;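 note: firefly luciferase luminescence from reporter carrying the Shn3 3'UTR in osteoblasts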

Sequence of Melanin-concentrating hormone receptor 1 (Q99705 whole entry): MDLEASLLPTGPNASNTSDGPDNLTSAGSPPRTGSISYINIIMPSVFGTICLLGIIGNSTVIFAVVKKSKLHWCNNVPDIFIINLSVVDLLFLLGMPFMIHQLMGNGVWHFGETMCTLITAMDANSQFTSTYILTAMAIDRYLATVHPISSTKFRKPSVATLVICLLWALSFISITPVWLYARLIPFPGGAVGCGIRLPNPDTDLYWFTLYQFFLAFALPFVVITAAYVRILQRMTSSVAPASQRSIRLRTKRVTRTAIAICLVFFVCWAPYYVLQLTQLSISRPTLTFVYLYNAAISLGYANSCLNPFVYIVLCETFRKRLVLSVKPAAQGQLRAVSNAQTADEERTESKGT

SMILES: CCCCn1c(N)c(N(CC(C)C)C(=O)c2ccc(COc3ccccc3)o2)c(=O)[nH]c1=O
- IC50 [1]: > 43.8 µM (not active)
- IC50 [2]: > 43.8 µM (not active)

SMILES: CC1CCCN(CCOCCOc2ccccc2-c2ccccc2)C1 (configuration not stated)
- EC50 [3]: 0.421 µM (active)
- EC50 [4]: 0.335 µM (active)

SMILES: Cc1ccnc(NC(=O)CCC(=O)N(CC(=O)NC2CCCCC2)C2CCCC2)c1
- EC50 [5]: > 50 µM (active)

SMILES: O=C1NN(c2cccc(Br)c2)C(=O)/C1=C\c1ccccc1
- AC50 [6]: > 100 µM (inactive)
- AC50 [7]: 3.04 µM (active)
- IC50 (Genome polyprotein): 35.1 µM (active)

SMILES: Cc1ccc(S(=O)(=O)N(C)C[C@@H]2Oc3cc(C#CC4CCCC4)ccc3S(=O)(=O)N([C@H](C)CO)C[C@H]2C)cc1
- AC50 [8]: 2.34 µM (active)
- AC50 [9]: 35.2 µM (active)
- AC50 [10]: 61.4 µM (active)

SMILES: CCC1(CC)Cc2ccccc2C(N)=C1C#N
- CC50 [11]: > 40 µM (active)
- IC50 [12]: > 80 µM (inactive)

SMILES: CCN(CC(=O)Nc1cccc(C#N)c1)CC(=O)Nc1cccc(OC)c1
- IC50 [1]: 27.9 µM (not active)
- IC50 [2]: > 43.8 µM (not active)

SMILES: CCCCC(c1nnnn1C1CCCC1)N1CCN(C2CCCCC2)CC1 (configuration not stated)
- IC50 [1]: > 43.8 µM (not active)
- IC50 [2]: > 43.8 µM (not active)

SMILES: Cc1nc(Nc2nc(O)cc(CSc3nc4ccccc4[nH]3)n2)nc2ccccc12
- AC50 [13]: 6.8 µM (active)
- AC50 [8]: 7.51 µM (active)
- AC50 [9]: 10.3 µM (active)
- AC50 [7]: 3.58 µM (active)
- AC50 [10]: 11.2 µM (active)
- AC50 [14]: 8.15 µM (active)

SMILES: COc1ccccc1NS(=O)(=O)c1cccc(C(=O)NC2CCN(Cc3ccccc3)CC2)c1
- EC50 [15]: > 120 µM (not active)
- IC50 (Protein Wnt-3a): 4.3 µM (active)
- EC50 [3]: 0.944 µM (active)
- AC50 [16]: 0.52 µM (active)
- EC50 [17]: > 120 µM (not active)
- EC50 [18]: > 120 µM (not active)
- AC50 [19]: 1.8 µM (active)
- AC50 [20]: 1.95 µM (active)
- EC50 [4]: 0.376 µM (active)
